Entries after “also recorded” stand apart in the source; their conditions may differ.
Tested on: human influenza A virus X-113 reassortant vaccine strain (hemagglutinin and neuraminidase of A/Texas/36/91, H1N1)
Type: binding

Substance	Binding of human influenza virus HRP conjugate to glycolipid on TLC plate
sulfatide	probably unspecific interaction
NeuAcα6Galβ4GlcNAcβ3Galβ4GlcβCer [S-6-PG]	did not show binding; also recorded: no binding at all
NeuAcα3Galβ4GlcβCer [GM3]	did not see binding
NeuAcα6Galβ4GlcNAcβ3Galβ4GlcNAcβ3Galβ4GlcβCer [7-sugar NeuAc-6-neolacto ganglioside]	did not show binding; also recorded: no binding at all
NeuAcα3Galβ4(Fucα3)GlcNAcβ-	excluded; also recorded: no binding
NeuAcα3Galβ4GlcNAcβ3Galβ4(Fucα3)GlcNAcβ- [VIM-2]	excluded; also recorded: no binding
